Source: US20250367209A1 (SOUTHERN RESEARCH INSTITUTE, priority 2022, published 2025)
“Also recorded” adds a separate entry of the source.

Experiments:
[1] = tested on: endogenous Tau-Fyn interaction; assay: Endogenous Tau-Fyn PLA in primary neurons; format: cell-based, rat; details: 3 μM and 15 μM, 24 hours
Procedure: Endogenous Tau-Fyn PL, in primary neurons: All PLA protocols were adapted from our recent study (Rush, et al. (2020) Neurobiol Dis 134, 104668).
For the endogenous Tau-Fyn PLA, neurons were grown on coverslips as described above to DIV20, then treated with compound no. 69 or vehicle, and fixed with PFA 24 hours later. Dako Tau (1:1000) and Fyn15 (1:250) antibodies were used. Duolink In Situ Fluorescence kit was used for PLA. Briefly, coverslips with fixed cells were permeabilized for 10 minutes in 0.25% Triton X-100, then blocked in 5% NGS in PBS for one hour at room temperature. Coverslips were incubated overnight at 4° C. with primary antibody in 1% NGS, then washed 3×5 minutes in PBS. Coverslips were then incubated for 1 hour at 37° C. in PLA probes (Anti-Mouse minus, Anti-Rabbit plus). […] To quantify PLA puncta, PLA fluorescence was thresholded, then ImageJ particle analyzer was run, specifying size and circularity to exclude any non-punctate signal. Quantified values were then normalized to values for vehicle-treated slides from that experiment. […]

Tau, Fyn = assay: Western blot of Tau, Fyn and GAPDH levels in neurons; format: cell-based, rat; details: 15 μM, 24 hours
Procedure: Like before (Rush, et al. (2020) Neurobiol Dis 134, 104668), at DIV13, neurons were treated with 15 μM compound no. 69 or Vehicle. 24 hours later, cells were harvested in lysis buffer (50 mM Tris, 150 mM NaCl, 5 mM EDTA, 0.1% SDS, 0.1% Triton-X-100, and 0.5% sodium deoxycholate) and centrifuged to remove cellular debris. Samples were diluted in LDS and reducing agent and heated at 70° C. for 10 minutes. Samples were run on 4-12% bis-tris gels in MOPS buffer with 5 μg protein per well, determined by a Bradford assay, then transferred to a PDVF membrane. Membrane was blocked for 1 hour in 50% Odysey blocking buffer then probed overnight with Fyn3 (1:1000) antibody at 4° C. Membrane was washed 3× in TBST, then incubated for 1 hour at RT in IRDye 700 or 800 conjugated secondary and scanned on an Odyssey Scanner. Images were quantified in ImageJ. After probing for GAPDH (1:5,000), the blot was stripped with Restore PLUS Western Blot Sripping Buffer for 30 minutes at room temperature, washed in TBST, and probed for DAKO Tau (1:10,000).

Fyn kinase = Fyn kinase (Homo sapiens (Human), UniProt P06241); assay: Custom panel for Fyn kinase activity; format: biochemical; details: 3 μM
Fyn kinase, sequence (P06241 whole entry): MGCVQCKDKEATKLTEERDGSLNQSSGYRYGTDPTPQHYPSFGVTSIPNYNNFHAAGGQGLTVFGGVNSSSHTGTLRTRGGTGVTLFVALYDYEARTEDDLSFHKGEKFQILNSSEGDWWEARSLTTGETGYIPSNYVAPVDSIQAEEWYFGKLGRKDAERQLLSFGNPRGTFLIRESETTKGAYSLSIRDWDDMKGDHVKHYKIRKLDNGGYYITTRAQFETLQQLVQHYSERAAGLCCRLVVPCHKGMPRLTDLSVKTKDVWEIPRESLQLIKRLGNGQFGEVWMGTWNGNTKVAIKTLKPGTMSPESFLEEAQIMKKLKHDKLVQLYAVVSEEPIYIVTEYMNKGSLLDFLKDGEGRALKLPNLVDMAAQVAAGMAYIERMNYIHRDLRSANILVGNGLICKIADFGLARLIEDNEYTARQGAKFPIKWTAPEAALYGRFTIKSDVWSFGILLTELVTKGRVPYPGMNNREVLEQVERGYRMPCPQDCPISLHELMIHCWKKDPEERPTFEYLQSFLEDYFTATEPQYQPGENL
From the text: 69 and compound no. […] Since Fyn was not included in that panel, a custom panel was completed for Fyn kinase activity.

Tau-SrcSH3 interaction = Tau-SrcSH3 interaction (Homo sapiens (Human), UniProt P10636); assay: Tau-Flag PLA, Tau-SrcSH3; format: cell-based; details: 15 μM, HEK-293 cells
Tau-SrcSH3 interaction, sequence (P10636 other isoform, or with tags, fused parts or gaps): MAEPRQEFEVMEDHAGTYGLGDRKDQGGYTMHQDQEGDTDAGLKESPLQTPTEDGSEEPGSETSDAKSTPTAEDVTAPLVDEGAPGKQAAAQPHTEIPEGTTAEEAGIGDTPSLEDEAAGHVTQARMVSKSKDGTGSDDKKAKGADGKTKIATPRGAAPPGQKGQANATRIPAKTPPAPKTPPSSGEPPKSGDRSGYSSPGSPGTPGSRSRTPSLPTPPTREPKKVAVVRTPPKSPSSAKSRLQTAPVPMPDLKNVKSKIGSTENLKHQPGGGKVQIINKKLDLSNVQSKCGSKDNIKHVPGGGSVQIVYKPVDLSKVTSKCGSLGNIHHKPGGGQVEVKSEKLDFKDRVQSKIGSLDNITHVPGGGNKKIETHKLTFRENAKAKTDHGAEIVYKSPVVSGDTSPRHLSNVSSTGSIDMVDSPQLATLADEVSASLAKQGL
Procedure: (§1) Tau-Flag PLA for Tau-SH3 interactions: To clone the SH3 constructs, a C-terminal Flag tag was added to the Tau construct using PCR, then the Tau sequence was replaced with the desired SH3 domain using In-Fusion HD cloning kit (Takara Bio). Next, an N-terminal GST tag was added to help expression using In-Fusion, resulting in GST-SH3-Flag plasmids. As a negative control, restriction enzymes were used to remove the FynSH3 from the FynSH3 construct, resulting in GST-Flag. All sequences were confirmed with Sanger sequencing, and expression in HEK-293 cells was verified by western blot and immunocytochemistry. Plating and experimental timeline was the same as above. Cells were transfected with 125 ng of Tau-mKate2 and 500 ng SH3 plasmid with 1.5 μL Fugene. compound no. 69 was applied to final concentration 15 μM. For Tau-SH3 PLA, we used Dako Tau (1:1000) and Flag (1:1000) primary antibodies.

Tau-BIN1SH3 interaction = Tau-BIN1SH3 interaction (Homo sapiens (Human), UniProt P10636); assay: Tau-Flag PLA, Tau-BIN1SH3; format: cell-based; details: 15 μM, HEK-293 cells
Tau-BIN1SH3 interaction, sequence (P10636 other isoform, or with tags, fused parts or gaps): as above
Procedure: as §1

[2] = tested on: endogenous Tau-tubulin interaction; assay: Tau-Tubulin PLA in HEK-293 cells; format: cell-based, human; details: 15 μM, 24 hours, untransfected HEK-293 cells
Procedure: Tau-Tubulin PLA: Untransfected HEK-293 cells were used to measure endogenous Tau-tubulin interaction. Cells were grown for 48 hours before applying 15 µM compound no. 69 for 24 hours. Cells were fixed and PLA was run as above except with Dako Tau (1:1000) and α-tubulin (1:2000) primary antibodies.

Question: Which results are given for `O=C(CN1CCOc2ccccc21)Nc1nnc(-c2ccccn2)[nH]1` [compound no. 69]?
Answer: endogenous Tau-Fyn interaction, PLA in primary neurons [1]: inhibited endogenous Tau-Fyn interaction at both 3 μM and 15 μM; also recorded: reduces endogenous Tau-Fyn PLA; Tau, Fyn (and GAPDH) levels in primary neurons (Tau, Fyn): did not lower Tau or Fyn levels; also recorded: does not reduce Tau, Fyn, or GAPDH levels; Fyn kinase inhibition (Fyn kinase): did not inhibit Fyn; Tau-SrcSH3 interaction, Tau-Flag PLA (Tau-SrcSH3 interaction): slightly but insignificantly inhibited; also recorded: does not inhibit Tau-SrcSH3 interaction; Tau-BIN1SH3 interaction, Tau-Flag PLA (Tau-BIN1SH3 interaction): moderately inhibited; also recorded: inhibits Tau-BIN1SH3 interaction; Tau-tubulin interaction, PLA [2]: did not inhibit Tau-tubulin binding; also recorded: does not inhibit Tau-tubulin interaction
